{"source": "patent US10568898B2", "about": "“Lipophilic nanoparticles for drug delivery” (priority 2013, dated 2020)", "key": {"[1]": {"test_system": "Ramos cells", "assay_type": "cell-based", "conditions": "FIG. 7, free doxorubicin at 100 nM-1 μM, HDL-Andrographolide NP at 5 nM", "description": "For suspension cell lines (Ramos, Jurkat, and SUDHL4), confluent cells were deposited onto 96-well plates at 1×10^5 cells/mL, then treated with either: 1-10 nM HDL NP, 1-10 nM HDL-drug NP, 10 nM-1 μM free drug, or 10 nM human HDL. All solutions were in 1% PBS, in a total volume of 100 μL. Cells were incubated for 48 hours with the treatment, then assessed for viability using a 3-(4,5-dimethylthiazol-2-yl)-5-(3-carboxymethoxyphenyl)-2-(4-sulfo-phenyl)-2H-tetrazolium (MTS) cell proliferation assay. 20 μL of the MTS solution (G1112; Promega) was added to each well; absorbance at 490 nm was measured immediately and after 90 min. Survival for a sample was presented as absorbance for that sample at 90 min, compared to absorbance for the non-treated control at 90 min. Since metabolically active cells reduce MTS, lower absorbance indicates cell death.\nCytotoxicity of the HDL-Doxorobucin NPs was assessed by incubating with lymphoma cells in culture for 48-72 hours, and measuring cell viability by a 3-(4,5-dimethylthiazol-2-yl)-5-(3-carboxymethoxyphenyl)-2-(4-sulfophenyl)-2H-tetrazolium (MTS) assay. […]\nFor suspension cell lines (Ramos and SUDHL4), 90 μl confluent cells were deposited into 96-well plates at 1×10^5 cells/mL, then treated with 10 μl of either: 1-10 nM HDL NP, 1-10 nM HDL-drug NP, 10 nM-1 μM free drug, 10 nM human HDL, or PBS. […] Cells were incubated for 48 hours with the treatment, and then assessed for viability using a 3-(4,5-dimethylthiazol-2-yl)-5-(3-carboxymethoxyphenyl)-2-(4-sulfo-phenyl)-2H-tetrazolium (MTS) cell proliferation assay. Twenty μL of the MTS solution (G1112; Promega) was added to each well; absorbance at 490 nm was measured immediately and after 90 minutes. […] Cell viability was calculated according to the following formula: Cell viability=(OD490, 90 min(sample)−OD490, 90 min(0% survival control))/(OD490, 90 min(100% survival control)−OD490, 90 min(0% survival control))×100%\nCytotoxicity of the Dox-HDL-NPs was assessed by incubating Dox-HDL-NP, HDL-NP, or free doxorubicin at varying doses with different lymphoma cell lines. […]"}, "[2]": {"test_system": "LNCaP adenocarcinoma cell lines", "assay": "Fluorescence microscopy of doxorubicin uptake", "assay_type": "cell-based, human", "conditions": "18 hours after treatment", "protocol": "To further confirm delivery of doxorubicin to cancer cells with HDL-NP, LNCaP adenocarcinoma cell lines were assessed by fluorescence microscopy after treatment with free doxorubicin, Dox-HDL-NP, and HDL-NP."}, "[3]": {"test_system": "H9c2 cells", "conditions": "48- and 72-hour treatment, same concentrations as lymphoma lines", "description": "For adherent lines (LNCaP, MDA-MB-231, and H9c2), cells were deposited onto 96-well plates at a concentration of 5×10^4 cells/mL, 24 hours prior to treatment. Cells were then treated, incubated, and assessed as described above for the suspension cells.\nThe effects of Dox-HDL-NP and free doxorubicin in H9c2 cardiomyoblasts, a rat-derived cardiomyocyte cell line that has been used extensively in mechanistic studies of doxorubicin toxicity in heart cells, have been studied."}, "[4]": {"conditions": "clinical use; cited from earlier work"}}, "data": [{"smiles": "CC[C@]1(O)C[C@H]2CN(CCc3c([nH]c4ccccc34)[C@@](C(=O)OC)(c3cc4c(cc3OC)N(C=O)[C@H]3[C@@](O)(C(=O)OC)[C@H](OC(C)=O)[C@]5(CC)C=CCN6CC[C@]43[C@@H]65)C2)C1", "note": "[Vincristine]", "values": [{"measurement": "killing effect", "setting": "[1]", "result": "kills with comparable efficiency to the bare HDL NP"}]}, {"smiles": "COc1cccc2c1C(=O)c1c(O)c3c(c(O)c1C2=O)C[C@@](O)(C(=O)CO)C[C@@H]3O[C@H]1C[C@H](N)[C@H](O)[C@H](C)O1", "note": "[doxorubicin]", "values": [{"measurement": "killing effect", "setting": "[1]", "result": "substantial killing effect"}, {"measurement": "doxorubicin fluorescence in cells", "setting": "[2]", "result": "fluorescence was clearly seen"}, {"measurement": "cell viability in cardiomyoblasts", "setting": "[3]", "result": "significant reduction in viability"}, {"measurement": "cumulative dose above which cardiotoxicity typically occurs", "setting": "[4]", "result": "exceeds 450 mg/m^2 of body surface area"}]}, {"smiles": "C=C1CC[C@@H]2[C@](C)(CO)[C@H](O)CC[C@@]2(C)[C@@H]1C/C=C1/C(=O)OC[C@H]1O", "note": "[Andrographolide]", "values": [{"measurement": "killing effect", "setting": "[1]", "result": "slight protective effect on cells"}]}]}
